# Test results taken from patent publication US7745465B2, “Method of enhancing cellular production of molecular chaperone, hydroxylamine derivatives useful for enhancing the chaperone production and the preparation thereof” (CytRx Corporation, priority 1995, dated 2010).
# Legend:
# [1] = tested on: mitochondrial ATP synthesis; experiment: Coupling of oxidative phosphorylation / mitochondrial ATP synthesis after heat shock (oxygraph); type: cell-based, Saccharomyces cerevisiae; settings: 10 to 100 μM, one hour at 25° C. before 42° C. heat shock
# Experimental: The experimental protocol for determining the impairment of oxidative phosphorylation and mitochondrial ATP synthesis in Saccharomyces cerevisiae is provided in Patriarca et al., Bio-chemistry and Cell Biology, 70:207-214, 1992, said reference being fully incorporated herein by reference.
# To S. cerevisiae cells that were maintained at 25° C., varying concentration of N-[2-hydroxy-3-(1-piperidinyl)propoxy]-3-piridinecarboximidoyl chloride maleate was introduced (concentrations between 10 to 100 μM), cells were then incubated for one hour at 25° C. in the presence of N-[2-hydroxy-3-(1-piperidinyl)propoxy]-3-piridinecarboximidoyl chloride maleate. The temperature was then increased to 42° C., and the oxygraph measurements were taken as described in the Patriarca reference.
# P 1 = experiment: P1 transcription factor activity in yeast cells; type: cell-based; settings: minimal medium
# From the text: It was also investigated if the activity of AP-1 and P 1 transcription factors can be modulated by N-[2-hydroxy-3-(1-piperidinyl)propoxy]-3-piridinecarboximidoyl chloride maleate in yeast cells exposed to various stress conditions.
# hsp72 [2] = experiment: Heat stress induced hsp72 level in U-937 leukemia cells; type: cell-based, human; settings: U-937 cells, 10^−5 M, treatment preceded heat stress
# Experimental: From the applied cells the 3T3 and L-929 mouse fibroblasts were cultured in MEM medium and grew in monolayer, the U-937 human leukemia cells were maintained in RPMI-1640 medium, in suspension culture, while the HeLa human epithelial cells were cultured in DMEM medium and in monolayer form. Cell cultures were maintained as described in example 6.2 (a) with the difference that cells were cultured in the above mentioned culture mediums.
# Experiments were carried out applying stress before and after the drug treatment. Stress was provoked by heat, by chemical agent, HgCl2 treatment. The test compounds were applied in the treatments at the 10^−5 M concentration.
# The experiments on 3T3 cell applying heat stress were performed as described in the 6.2. (c) point of example 6, with the difference that stress was induced by a 30 min. exposure at 43° C. temperature and treatment with the test compounds was performed 15 min. before or 100 min. after the heat stress.
# Experiments using heat shock on U-937 leukemia and L-929 mouse fibroblast cells were carried out similarly as described above, but drug treatments in these tests always preceded the heat stress. The compound N-[2-hydroxy-3-(1-piperidinyl)-propoxy]-3-pyridine-carboximidoyl chloride maleate was tested at the 10^−5 M concentration under these experimental conditions.
# Hsp72 [3] = experiment: Heat stress induced hsp72 expression in rat testicular explant; type: cell-based; settings: 10^−5 M, 15 min. before 43° C. 30 min.
# Experimental: Testis of CFY rats weighing of 200 g were removed in sterile conditions and the released testicular tubuli were suspended in 10% fetal bovine serum containing MEM culture medium in that way that five ml suspension contained 50-100 mg tissue. The explants were incubated in 5% CO2 containing humidified air at 37° C. for one hour, then the cultures were treated with 10^−5 M concentration of the tested compounds. After a further incubation for 15 min. at 37° C., explants were exposed to heat shock at 43° C. for 30 min. The amount of the induced hsp72 was measured after a further 6 hours incubation at 37° C.
# HSP72 [4] = experiment: Heat stress induced HSP72 production in 3T3 cells; type: cell-based, mouse; settings: 10^−5 M
# Outline: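 Mouse 3T3 fibroblasts in MEM monolayer were heat-stressed 30 min at 43° C, with test compounds at 10^−5 M given 15 min before or 100 min after stress. HSP72 detected by immunoblot with SPA 810 primary and HRP secondary antibodies, quantified by densitometry.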
structure (smiles),measurement,setting,value
O=C(O)/C=C\C(=O)O.OC(CON=C(Cl)c1cccnc1)CN1CCCCC1 (stereo not drawn) [N-[2-hydroxy-3-(1-piperidinyl)-propoxy]3-pyridinecarboximidoyl chloride maleate],protection from the impairment of mitochondrial ATP synthesis,[1],40-60%
same,activity of P 1,P 1,activity decreased
same,increase in the heat stress induced hsp72 level,hsp72 [2],more than 50%
same,Level of hsp72 relative to the stress exposed control,Hsp72 [3],+ + +
same,HSP72 level relative to the stress exposed control,HSP72 [4]; treatment 15 min. before 30 min. 43° C. heat stress,+++ (>100%)
same,HSP72 level relative to the stress exposed control,HSP72 [4]; treatment 100 min. after 30 min. 43° C. heat stress,0 (0 indicates that the treatment altered by ±20% the stress induced hsp72 level in the cells)
